Assay results reported in publication PMC4753070 (Bioorganic & medicinal chemistry letters, 2016).
Entries after “also recorded” stand apart in the source; their conditions may differ.

Columns and labels:
[1] = system: histone H3K9 acetylation in mouse forebrain primary neuronal cultures; experiment: Neuronal histone acetylation assay, H3K9ac immunofluorescence; type: cell-based; settings: 1 and 10 μM, 24 hrs, relative to SAHA
[2] = Mouse plasma pharmacokinetics and brain-to-plasma ratio; type: in vivo
HDAC5 = HDAC5 (Homo sapiens, UniProt Q9UQL6); experiment: In vitro HDAC5; type: biochemical
HDAC5, sequence (Q9UQL6 whole entry, species assumed): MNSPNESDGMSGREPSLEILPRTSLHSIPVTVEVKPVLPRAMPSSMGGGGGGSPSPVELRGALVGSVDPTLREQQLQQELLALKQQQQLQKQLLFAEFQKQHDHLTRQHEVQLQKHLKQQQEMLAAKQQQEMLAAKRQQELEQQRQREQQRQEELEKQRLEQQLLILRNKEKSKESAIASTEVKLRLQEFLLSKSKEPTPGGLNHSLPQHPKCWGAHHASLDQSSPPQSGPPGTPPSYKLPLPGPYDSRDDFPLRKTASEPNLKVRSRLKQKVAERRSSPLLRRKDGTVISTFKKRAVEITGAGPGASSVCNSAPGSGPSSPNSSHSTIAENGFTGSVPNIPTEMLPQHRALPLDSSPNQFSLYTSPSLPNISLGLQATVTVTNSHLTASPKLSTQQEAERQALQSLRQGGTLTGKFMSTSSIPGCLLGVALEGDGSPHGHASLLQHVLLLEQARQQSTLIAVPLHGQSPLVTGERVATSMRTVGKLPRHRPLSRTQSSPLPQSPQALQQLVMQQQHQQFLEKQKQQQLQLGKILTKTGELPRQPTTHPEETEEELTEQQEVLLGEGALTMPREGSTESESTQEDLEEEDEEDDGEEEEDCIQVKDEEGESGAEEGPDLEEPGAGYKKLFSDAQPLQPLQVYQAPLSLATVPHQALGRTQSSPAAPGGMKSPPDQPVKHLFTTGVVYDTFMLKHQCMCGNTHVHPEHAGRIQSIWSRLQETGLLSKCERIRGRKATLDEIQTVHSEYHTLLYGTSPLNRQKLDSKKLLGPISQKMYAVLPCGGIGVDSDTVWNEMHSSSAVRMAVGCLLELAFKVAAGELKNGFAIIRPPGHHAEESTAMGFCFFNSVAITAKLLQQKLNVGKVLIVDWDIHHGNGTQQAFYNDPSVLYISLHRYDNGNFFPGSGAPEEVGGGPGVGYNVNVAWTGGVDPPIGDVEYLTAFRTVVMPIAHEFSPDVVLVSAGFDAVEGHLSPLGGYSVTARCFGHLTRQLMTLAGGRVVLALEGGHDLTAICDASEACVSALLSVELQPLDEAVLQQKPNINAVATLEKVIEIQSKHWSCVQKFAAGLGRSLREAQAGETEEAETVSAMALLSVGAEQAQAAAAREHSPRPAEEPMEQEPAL

[3] = system: histone H4K12 acetylation in mouse forebrain primary neuronal cultures; experiment: Neuronal histone acetylation assay, H4K12ac immunofluorescence; type: cell-based; settings: 1 and 10 μM, 24 hrs, relative to SAHA
[4] = system: recombinant human HDAC1-3; experiment: In vitro HDAC1-3 inhibition, potency comparison across the three isoforms; type: biochemical
[5] = mouse, intraperitoneal 25 mg/kg; cited from earlier work

| SMILES | induction of histone H3K9 acetylation (H3K9ac) [1] | induction of histone H4K12 acetylation (H4K12ac) [3] | also measured |
| --- | --- | --- | --- |
| O=C(CCCCCC(=O)N/N=C/c1ccc(-c2cccnc2)cc1)NO [Compound 9f, neurinostat] | most potent | most potent | plasma maximum concentration ([2]; intraperitoneal 25 mg/kg, peripheral blood): 1.9 µM; brain-to-plasma ratios relative to those measured for crebinostat (9b) ([2]; time points 0.5, 1 and 2 hours): about twice; activity toward HDAC5 (HDAC5): no activity |
| COc1ccc(Br)c(/C=N/NC(=O)CCCCCC(=O)NO)c1 [Compound 9j] | more effective | more effective | – |
| O=C(CCCCC(=O)N/N=C/c1ccc(-c2ccccc2)cc1)NO [Compound 9a] | – | – | fold increase in IC50's over those of crebinostat (9b) ([4]; HDAC1, 2 or 3): approximately 20 fold |
| NNC(=O)CCCCC(=O)NO [Compound 3a] | No induction | No induction | – |
| NNC(=O)CCCCCC(=O)NO [Compound 3b] | No induction | No induction | – |
| O=C(CCCCCCC(=O)N/N=C/c1ccc(-c2ccccc2)cc1)NO [Compound 9c] | greater increases | greater increases | fold improved potency for inhibiting HDAC1-3 versus crebinostat (9b) ([4]; HDAC1-3, biochemical reaction): ~ 2 fold |
| NNC(=O)CCCCCCC(=O)NO [Compound 7] | No induction | No induction | – |
| O=C(CCCCCC(=O)N/N=C/c1ccc(-c2ccccc2)cc1)NO [Compound 9b, crebinostat] | greater increases; also recorded: more effective | greater increases; also recorded: more effective | activity toward HDAC5 (HDAC5): no activity; fold reduction in IC50 versus SAHA ([4]; HDAC1, 2 or 3): > 5 fold; brain Cmax [5]: 0.06 µM |
| COc1cc(O)cc(OC)c1/C=N/NC(=O)CCCCCC(=O)NO [Compound 9k] | least potent | least potent | – |
